{
  "source": "patent US11833229B2",
  "about": "“Labeling precursors with squaric acid coupling” (SCV—SpezialChemikalienVertrieb GmbH, priority 2019, dated 2023)",
  "key": {"[1]": {"tested_on": "LNCap tumor", "assay": "Ex vivo activities of [44Sc]Sc-AAZTA.QS.PSMA with and without 2-PMPA blocking", "format": "in vivo, mice", "settings": "for Ex vivo activity kindneys: kidneys", "procedure": "The radiotracer [^44Sc]Sc-AAZTA.QS.PSMA was further examined in vivo in three mice, each carrying an LNCap tumor. In addition blocking tests were carried out on one of the mice. […] The same applies to the kidneys."}, "[2]": {"assay": "Stability of [44Sc]Sc-AAZTA.QS.PSMA", "format": "in vitro ADME", "settings": "over a period of 24 hours", "procedure": "Similar to DATA, the AAZTA chelator can also be labeled with radio nuclides such as ^44Sc and ^68Ga under mild conditions. In the instant example, the radioisotope ^44Sc is used and the properties of the radiotracer [^44Sc]Sc-AAZTA.QS.PSMA are investigated. The synthesis shown in FIG. 44 was readily carried out with high yield. […] The stability of [^44Sc]Sc-AAZTA.QS.PSMA exceeds 95% over a period of 24 hours (FIG. 46)."}},
  "data": [
    {"compound": "O=C(O)CCC(NC(=O)NC(CCCCNc1c(NCCNC(=O)CCCCC2(N(CC(=O)O)CC(=O)O)CN(CC(=O)O)CCN(CC(=O)O)C2)c(=O)c1=O)C(=O)O)C(=O)O.[44Sc+3]", "note": "(stereo not shown) [^44Sc.AAZTA.QS.KuE]", "values": [
      {"measurement": "Ex vivo activity LN", "setting": "[1]; Block (+PMPA)", "value": 0.39, "unit": "% ID/g"},
      {"measurement": "Ex vivo activity LN", "setting": "[1]; mouse (1), no blocking", "value": 1.33, "unit": "% ID/g"},
      {"measurement": "Ex vivo activity LN", "setting": "[1]; mouse (2), no blocking", "value": 0.38, "unit": "% ID/g"},
      {"measurement": "Ex vivo activity blood", "setting": "[1]; Block (+PMPA)", "value": 0.34, "unit": "% ID/g"},
      {"measurement": "Ex vivo activity blood", "setting": "[1]; mouse (1), no blocking", "value": 0.96, "unit": "% ID/g"},
      {"measurement": "Ex vivo activity blood", "setting": "[1]; mouse (2), no blocking", "value": 0.41, "unit": "% ID/g"},
      {"measurement": "Ex vivo activity bone", "setting": "[1]; Block (+PMPA)", "value": 0.10, "unit": "% ID/g"},
      {"measurement": "Ex vivo activity bone", "setting": "[1]; mouse (1), no blocking", "value": 0.46, "unit": "% ID/g"},
      {"measurement": "Ex vivo activity bone", "setting": "[1]; mouse (2), no blocking", "value": 0.29, "unit": "% ID/g"},
      {"measurement": "Ex vivo activity heart", "setting": "[1]; Block (+PMPA)", "value": 0.11, "unit": "% ID/g"},
      {"measurement": "Ex vivo activity heart", "setting": "[1]; mouse (1), no blocking", "value": 0.41, "unit": "% ID/g"},
      {"measurement": "Ex vivo activity heart", "setting": "[1]; mouse (2), no blocking", "value": 0.14, "unit": "% ID/g"},
      {"measurement": "Ex vivo activity kindneys", "setting": "[1]; Block (+PMPA)", "value": 7.97, "unit": "% ID/g"},
      {"measurement": "Ex vivo activity kindneys", "setting": "[1]; mouse (1), no blocking", "value": 119.86, "unit": "% ID/g"},
      {"measurement": "Ex vivo activity kindneys", "setting": "[1]; mouse (2), no blocking", "value": 42.76, "unit": "% ID/g"},
      {"measurement": "Ex vivo activity liver", "setting": "[1]; Block (+PMPA)", "value": 0.16, "unit": "% ID/g"},
      {"measurement": "Ex vivo activity liver", "setting": "[1]; mouse (1), no blocking", "value": 0.42, "unit": "% ID/g"},
      {"measurement": "Ex vivo activity liver", "setting": "[1]; mouse (2), no blocking", "value": 0.16, "unit": "% ID/g"},
      {"measurement": "Ex vivo activity lung", "setting": "[1]; Block (+PMPA)", "value": 0.06, "unit": "% ID/g"},
      {"measurement": "Ex vivo activity lung", "setting": "[1]; mouse (1), no blocking", "value": 1.31, "unit": "% ID/g"},
      {"measurement": "Ex vivo activity lung", "setting": "[1]; mouse (2), no blocking", "value": 0.59, "unit": "% ID/g"},
      {"measurement": "Ex vivo activity muscle", "setting": "[1]; Block (+PMPA)", "value": 0.05, "unit": "% ID/g"},
      {"measurement": "Ex vivo activity muscle", "setting": "[1]; mouse (1), no blocking", "value": 0.38, "unit": "% ID/g"},
      {"measurement": "Ex vivo activity muscle", "setting": "[1]; mouse (2), no blocking", "value": 0.13, "unit": "% ID/g"},
      {"measurement": "Ex vivo activity salivary glands", "setting": "[1]; Block (+PMPA)", "value": 0.11, "unit": "% ID/g"},
      {"measurement": "Ex vivo activity salivary glands", "setting": "[1]; mouse (1), no blocking", "value": 0.51, "unit": "% ID/g"},
      {"measurement": "Ex vivo activity salivary glands", "setting": "[1]; mouse (2), no blocking", "value": 0.18, "unit": "% ID/g"},
      {"measurement": "Ex vivo activity small intestine", "setting": "[1]; Block (+PMPA)", "value": 0.35, "unit": "% ID/g"},
      {"measurement": "Ex vivo activity small intestine", "setting": "[1]; mouse (1), no blocking", "value": 0.62, "unit": "% ID/g"},
      {"measurement": "Ex vivo activity small intestine", "setting": "[1]; mouse (2), no blocking", "value": 0.22, "unit": "% ID/g"},
      {"measurement": "Ex vivo activity spleen", "setting": "[1]; Block (+PMPA)", "value": 0.15, "unit": "% ID/g"},
      {"measurement": "Ex vivo activity spleen", "setting": "[1]; mouse (1), no blocking", "value": 6.19, "unit": "% ID/g"},
      {"measurement": "Ex vivo activity spleen", "setting": "[1]; mouse (2), no blocking", "value": 1.15, "unit": "% ID/g"},
      {"measurement": "Ex vivo activity tumor", "setting": "[1]; Block (+PMPA)", "value": 0.53, "unit": "% ID/g"},
      {"measurement": "Ex vivo activity tumor", "setting": "[1]; mouse (1), no blocking", "value": 14.73, "unit": "% ID/g"},
      {"measurement": "Ex vivo activity tumor", "setting": "[1]; mouse (2), no blocking", "value": 14.14, "unit": "% ID/g"},
      {"measurement": "stability", "setting": "[2]", "value": "exceeds 95%"}
    ]}
  ]
}
